US8017612B2, “Piperazine compound and use thereof as a HCV polymerase inhibitor” (priority 2006, dated 2011)
pIC50: −log10 of the molar value.

Key:
[1] = target: T1, HCV polymerase (NS5B) type 1a (Hepatitis C virus genotype 1a, UniProt P26664); experiment: Assay of enzyme (HCV polymerase) inhibitory activity, type 1a enzyme; type: biochemical, HCV type 1a (cloned from the blood of patients); settings: HCV polymerase inhibitory activity (IC50), 1a, type 1a enzyme 1.5 μg/ml, 25° C., 60 min
T1 construct: made in house; host or cells: Escherichia coli (by the 'similar method' of the 1b enzyme)
Excerpt: (§1) The evaluation of the HCV polymerase inhibitory activity of the compound of the present invention is explained in the following. This polymerase is an enzyme coded for by the non-structural protein region called NS5B on the genome RNA of HCV.
(§2) i) Preparation of Enzyme (HCV Polymerase)
(§3) Using, as a template, a cDNA clone corresponding to the full length genome RNA of HCV BK strain (type 1b) obtained from the blood of a patient with hepatitis C, a region encoding NS5B (J Virol 1991 March, 65(3), 1105-13, 544 amino acids after deletion of 47 amino acids on the C-terminal) was amplified by PCR. The objective gene was prepared by adding a 6 His tag {base pair encoding 6 continuous histidine (His)} to the 3′ end thereof and transformed to Escherichia coli. The Escherichia coli capable of producing the objective protein was cultured. The obtained cells were suspended in a buffer solution and crushed in a microfluidizer. The supernatant was obtained by centrifugation and applied to various column chromatographys {mono-S, Sephacryl S-200 (Pharmacia)}, inclusive of metal chelate chromatography, to give a standard enzyme product.
Standard enzyme products for type 1a (cloned from the blood of patients) were also obtained by a similar method.
(§4) ii) Synthesis of Substrate RNA
(§5) Using a synthetic primer designed based on the sequence of HCV genomic 3′ untranslated region, a DNA fragment (148 bp) containing polyU and 3′X sequence was entirely synthesized and cloned into plasmid pBluescript SK II(+) (Stratagene). The cDNA encoding full length NS5B, which was prepared in i) above, was digested with restriction enzyme KpnI to give a cDNA fragment containing the nucleotide sequence of from the restriction enzyme cleavage site to the termination codon. This cDNA fragment was inserted into the upstream of 3′ untranslated region of the DNA in pBluescript SK II(+) and ligated. The about 450 bp inserted DNA sequence was used as a template in the preparation of substrate RNA. This plasmid was cleaved immediately after the 3′X sequence, linearized and purified by phenol-chloroform treatment and ethanol precipitation to give DNA.
(§6) RNA was synthesized (37° C., 4 hr) by run-off method using this purified DNA as a template, a promoter of pBluescript SK II(+), MEGAscript RNA synthesis kit (Ambion) and T7 RNA polymerase. DNase I was added and the mixture was incubated for 1 hr. The template DNA was removed by decomposition to give a crude RNA product. This crude product was treated with phenol-chloroform and purified by ethanol precipitation to give the objective substrate RNA.
(§7) This RNA was applied to urea denaturation polyacrylamide gel electrophoresis to confirm the quality thereof and preserved at −80° C.
(§8) iii) Assay of Enzyme (HCV Polymerase) inhibitory activity
(§9) A test substance (compound of the present invention) and a reaction mixture (30 μl) having the following composition were reacted at 25° C. for 60 min.
(§10) 10% Trichloroacetic acid and 1% sodium pyrophosphate solution (150 μl) at 4° C. was added to this reaction mixture to stop the reaction. The reaction mixture was left standing at 4° C. for 15 min to insolubilize RNA. This RNA was trapped on a glass filter (PerkinElmer, GF/B) upon filtration by suction. This filter was washed with a solution containing 1% trichloroacetic acid and 0.1% sodium pyrophosphate, washed with 90% ethanol and dried. A liquid scintillation cocktail (PerkinElmer) was added and the radioactivity of RNA synthesized by the enzyme reaction was measured on a liquid scintillation counter.
The HCV polymerase inhibitory activity (IC50) of the compound of the present invention was calculated from the values of radioactivity of the enzyme reaction with and without the test substance. […]

[2] = target: T2, HCV polymerase (NS5B) type 1b (Hepatitis C virus genotype 1b, UniProt P26663); experiment: Assay of enzyme (HCV polymerase) inhibitory activity, type 1b enzyme; type: biochemical, HCV BK strain (type 1b); settings: HCV polymerase inhibitory activity (IC50), 1b, type 1b enzyme 0.5 μg/ml, 25° C., 60 min
T2 construct: a region encoding NS5B (J Virol 1991 March, 65(3), 1105-13, 544 amino acids after deletion of 47 amino acids on the C-terminal); 6xHis (C); made in house; host or cells: Escherichia coli
Excerpt: as §1, §2, §3, §4, §5, §6, §7, §8, §9, §10
The HCV polymerase inhibitory activity (IC50) of the compound of the present invention was calculated from the values of radioactivity of the enzyme reaction with and without the test substance.
Reaction mixture: HCV polymerase (type 1b 0.5 μg/ml or type 1a 1.5 μg/m) obtained in i), substrate RNA (5 μg/ml) obtained in ii), ATP (50 μM), GTP (50 μM), CTP (50 μM), UTP (2 μM), [5,6-^3H]UTP (30-60 Ci/mmol (Amersham Biosciences), 1 μCi) 20 mM Tris-HCl (pH 7.5), EDTA (1 mM), MgCl2 (5 mM), NaCl (50 mM), DTT (1 mM), BSA (0.01%)

Compound | pIC50 [1] | pIC50 [2]
CC(=O)N1CCN(S(=O)(=O)c2ccc(Cl)cc2)C(C(=O)NCc2ccc(C(F)(F)F)cc2)C1 (stereo not drawn) [Example 20, 4-acetyl-1-(4-chloro-benzenesulfonyl)-piperazine-2-carboxylic acid 4-trifluoromethyl-benzylamide] | < 6.00 | < 6.00
CC(=O)N1CCN(S(=O)(=O)c2ccccc2Cl)C(C(=O)NCc2ccc(C(F)(F)F)cc2)C1 (stereo not drawn) [Example 21, 4-acetyl-1-(2-chloro-benzenesulfonyl)-piperazine-2-carboxylic acid 4-trifluoromethyl-benzylamide] | < 6.00 | < 6.00
CC(=O)N1CCN(S(=O)(=O)c2ccc(Br)cc2)C(C(=O)NCc2ccc(C(F)(F)F)cc2)C1 (stereo not drawn) [Example 22, 4-acetyl-1-(4-bromo-benzenesulfonyl)-piperazine-2-carboxylic acid 4-trifluoromethyl-benzylamide] | < 6.00 | < 6.00
CC(=O)N1CCN(S(=O)(=O)c2ccc(Br)s2)C(C(=O)NCc2ccc(C(F)(F)F)cc2)C1 (stereo not drawn) [Example 23, 4-acetyl-1-(5-bromo-thiophene-2-sulfonyl)-piperazine-2-carboxylic acid 4-trifluoromethyl-benzylamide] | < 6.00 | < 6.00
CC(=O)N1CCN(S(=O)(=O)c2ccccc2)C(C(=O)NCc2ccc(C(F)(F)F)cc2)C1 (stereo not drawn) [Example 24, 4-acetyl-1-benzenesulfonyl-piperazine-2-carboxylic acid 4-trifluoromethyl-benzylamide] | < 6.00 | < 6.00
CC(=O)N1CCN(S(=O)(=O)c2ccc(Oc3ccc(Cl)cc3)cc2)C(C(=O)NCc2ccc(C(F)(F)F)cc2)C1 (stereo not drawn) [Example 25, 4-acetyl-1-[4-(4-chloro-phenoxy)-benzenesulfonyl]-piperazine-2-carboxylic acid 4-trifluoromethyl-benzylamide] | < 6.00 | < 6.00
CC(=O)N1CCN(S(=O)(=O)c2ccc(-c3ccc(Cl)cc3)cc2)C(C(=O)NCc2ccc(C(F)(F)F)cc2)C1 (stereo not drawn) [Example 26, 4-acetyl-1-(4′-chloro-biphenyl-4-sulfonyl)-piperazine-2-carboxylic acid 4-trifluoromethyl-benzylamide] | < 6.00 | < 6.00
CC(=O)N1CCN(S(=O)(=O)c2cc(C)cc(C)c2Oc2ccc(C#N)cc2)C(C(=O)NCc2ccc(C(F)(F)F)cc2)C1 (stereo not drawn) [Example 27, 4-acetyl-1-[2-(4-cyano-phenoxy)-3,5-dimethyl-benzenesulfonyl]-piperazine-2-carboxylic acid 4-trifluoromethyl-benzylamide] | < 6.00 | < 6.00
CC(=O)N1CCN(S(=O)(=O)c2ccc(-c3ccc(Cl)cc3)s2)C(C(=O)NCc2ccc(C(F)(F)F)cc2)C1 (stereo not drawn) [Example 28, 4-acetyl-1-[5-(4-chloro-phenyl)-thiophene-2-sulfonyl]-piperazine-2-carboxylic acid 4-trifluoromethyl-benzylamide] | < 6.00 | < 6.00
CC(=O)N1CCN(S(=O)(=O)c2cccc(Cl)c2)C(C(=O)NCc2ccc(C(F)(F)F)cc2)C1 (stereo not drawn) [Example 29, 4-acetyl-1-(3-chloro-benzenesulfonyl)-piperazine-2-carboxylic acid 4-trifluoromethyl-benzylamide] | < 6.00 | < 6.00
CC(=O)N1CCN(S(=O)(=O)c2ccc(C(C)(C)C)cc2)C(C(=O)NCc2ccc(C(F)(F)F)cc2)C1 (stereo not drawn) [Example 30, 4-acetyl-1-(4-tert-butyl-benzenesulfonyl)-piperazine-2-carboxylic acid 4-trifluoromethyl-benzylamide] | < 6.00 | < 6.00
CC(=O)c1ccc(S(=O)(=O)N2CCN(C(C)=O)CC2C(=O)NCc2ccc(C(F)(F)F)cc2)cc1 (stereo not drawn) [Example 31, 4-acetyl-1-(4-acetyl-benzenesulfonyl)-piperazine-2-carboxylic acid 4-trifluoromethyl-benzylamide] | < 6.00 | < 6.00
COC(=O)N1CCN(S(=O)(=O)c2ccc(C(C)C)cc2)C(C(=O)NCc2ccc(C(F)(F)F)cc2)C1 (stereo not drawn) [Example 32, 4-(4-isopropyl-benzenesulfonyl)-3-(4-trifluoromethyl-benzylcarbamoyl)-piperazine-1-carboxylic acid methyl ester] | < 6.00 | < 6.00
CC(=O)N1CCN(S(=O)(=O)c2ccc(C(C)C)cc2)C(C(=O)NCc2cccc(Cl)c2)C1 (stereo not drawn) [Example 33, 4-acetyl-1-(4-isopropyl-benzenesulfonyl)-piperazine-2-carboxylic acid 3-chloro-benzylamide] | < 6.00 | < 6.00
CC(=O)N1CCN(S(=O)(=O)c2ccc(C(C)C)cc2)C(C(=O)NCc2ccccc2Cl)C1 (stereo not drawn) [Example 34, 4-acetyl-1-(4-isopropyl-benzenesulfonyl)-piperazine-2-carboxylic acid 2-chloro-benzylamide] | < 6.00 | < 6.00
CC(=O)N1CCN(S(=O)(=O)c2ccc(C(C)C)cc2)C(C(=O)NCc2ccc(Cl)cc2)C1 (stereo not drawn) [Example 35, 4-acetyl-1-(4-isopropyl-benzenesulfonyl)-piperazine-2-carboxylic acid 4-chloro-benzylamide] | < 6.00 | < 6.00
CC(=O)N1CCN(S(=O)(=O)c2ccc(C(C)C)cc2)C(C(=O)NCc2ccc(-c3ccccc3)cc2)C1 (stereo not drawn) [Example 36, 4-acetyl-1-(4-isopropyl-benzenesulfonyl)-piperazine-2-carboxylic acid (biphenyl-4-ylmethyl)-amide] | 6.00 to 7.00 | < 6.00
CC(=O)N1CCN(S(=O)(=O)c2ccc(C(C)C)cc2)C(C(=O)NCc2ccc(N(C)C)cc2)C1 (stereo not drawn) [Example 37, 4-acetyl-1-(4-isopropyl-benzenesulfonyl)-piperazine-2-carboxylic acid 4-dimethylamino-benzylamide] | 6.00 to 7.00 | 6.00 to 7.00
CC(=O)N1CCN(S(=O)(=O)c2ccc(C(C)C)cc2)C(C(=O)NCc2ccc(S(N)(=O)=O)cc2)C1 (stereo not drawn) [Example 38, 4-acetyl-1-(4-isopropyl-benzenesulfonyl)-piperazine-2-carboxylic acid 4-sulfamoyl-benzylamide] | < 6.00 | < 6.00
CC(=O)Nc1ccc(S(=O)(=O)N2CCN(C(C)=O)CC2C(=O)NCc2ccc(C(F)(F)F)cc2)cc1 (stereo not drawn) [Example 39, 4-acetyl-1-(4-acetylamino-benzenesulfonyl)-piperazine-2-carboxylic acid 4-trifluoromethyl-benzylamide] | < 6.00 | < 6.00
CC(=O)N1CCN(S(=O)(=O)c2ccc([N+](=O)[O-])cc2)C(C(=O)NCc2ccc(C(F)(F)F)cc2)C1 (stereo not drawn) [Example 40, 4-acetyl-1-(4-nitro-benzenesulfonyl)-piperazine-2-carboxylic acid 4-trifluoromethyl-benzylamide] | < 6.00 | < 6.00
